Several values for one entry are separate records, joined by “and”; a condition that tells them apart may be missing. Identical values can stand only once.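 A five-concentration, 48-hour dose response in 96-well plates underlies each endpoint, interpolated linearly between surrounding concentrations. Here, GI50 denotes the concentration required for 50% inhibition of growth. TGI marks complete inhibition of growth.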
Key:
Assay in all cases: NCI anticancer screen, dose series, 48 h
[1] = system: A498 renal
[2] = system: DU-145 prostate
[3] = system: HCC-2998 colon
[4] = system: HOP-62 NSCLC
[5] = system: NCI-H460 lung
[6] = system: SK-MEL-5 melanoma
[7] = system: T-47D breast
[8] = system: NCI-H522 lung

Compound	TGI [1]	TGI [2]	TGI [3]	TGI [4]	TGI [5]	TGI [6]	TGI [7]	GI50 [1]	GI50 [2]	GI50 [3]	GI50 [4]	GI50 [5]	GI50 [8]	TGI [8]	GI50 [6]	GI50 [7]
CC(C)(C)OC[C@H](O)CC#N	> 100 µM	> 100 µM	> 100 µM	> 100 µM	> 100 µM	> 100 µM	> 100 µM									
O=C1CC(=O)OC(c2ccc([N+](=O)[O-])cc2)O1	7.72 µM	3.2 µM	3.18 µM	6.79 µM	5.9 µM	3.39 µM	4.1 µM	2.76 µM	1.63 µM	1.76 µM	2.47 µM	2.4 µM	1.38 µM	2.72 µM	1.72 µM	1.93 µM
O=C1NC2(CN3CCC2CC3)C(=O)N1CN(Cc1ccccc1)c1ccccc1 (configuration not stated)	> 100 µM	> 100 µM	> 100 µM	> 100 µM	> 100 µM	> 100 µM	> 100 µM							> 100 µM		
COC(=O)CCCCCN=Cc1c(O)c(O)c(C(C)C)c2cc(C)c(-c3c(C)cc4c(C(C)C)c(O)c(O)c(C=NCCCCCC(=O)OC)c4c3O)c(O)c12	> 32.5 µM	21.1 µM	> 32.5 µM	28.1 µM	8.42 µM	12.6 µM	29.4 µM	2.74 µM	1.78 µM	2.15 µM	1.35 µM	1.28 µM	0.968 µM	6.52 µM	4.46 µM	1.25 µM
O=C(O)CSc1ncccc1[N+](=O)[O-]	> 100 µM	> 100 µM		> 100 µM	> 100 µM	> 100 µM	> 100 µM							> 100 µM		
c1cc(CNC2C3CCC(C3)C2c2c[nH]c3ccccc23)cc(CNC2C3CCC(C3)C2c2c[nH]c3ccccc23)c1 (configuration not stated)		2.3 µM			> 100 µM	3.29 µM						0.313 µM		2.76 µM		
CCN(CC)CCNc1n[n+]([O-])c2ccccc2[n+]1[O-]	9.39 µM and 9.85 µM	48.4 µM and 47.9 µM	6.12 µM and 14.5 µM	20 µM	38.4 µM and 12.6 µM	4.86 µM and 3.31 µM	36.4 µM and 27.5 µM	5.47 µM and 2.54 µM				3.94 µM and 1.54 µM	3.85 µM and 7.95 µM	17.3 µM and 22.9 µM		
Cn1c(=O)c2c(ncn2CN2CCN(Cn3cnc4c3c(=O)n(C)c(=O)n4C)CC2)n(C)c1=O	> 100 µM	> 100 µM		> 100 µM	57.8 µM	> 100 µM	89.1 µM							> 100 µM		
Cn1cc(CNCC2CCN(c3ncc(C(=O)NO)cn3)CC2)c2ccccc21	0.0274 µM	4.41 µM	0.0837 µM	0.838 µM	11.5 µM	0.0307 µM	0.543 µM	0.0102 µM	0.0124 µM	0.0141 µM	0.0128 µM	0.0131 µM	< 0.01 µM	0.0615 µM	< 0.0108 µM	< 0.01 µM
CNC(=S)N/N=C/c1ccc([N+](=O)[O-])s1	> 10 µM	> 10 µM	> 10 µM	> 10 µM	> 10 µM	> 10 µM	> 10 µM							> 10 µM		
COC1CC(OC(=O)c2ccccc2)C(OC(=O)c2ccccc2)C(C)O1 (configuration not stated)	> 100 µM	> 100 µM	> 100 µM	> 100 µM	> 100 µM	> 100 µM	> 100 µM							> 100 µM		
COc1ccc(-c2cn[nH]c2-c2cc(OC)c3c(c2)OCCO3)cc1	0.419 µM	16.9 µM	20.4 µM	47.6 µM	11.4 µM	8.08 µM		0.0298 µM	0.312 µM	0.673 µM	0.264 µM	0.0686 µM	0.0243 µM	0.164 µM	0.0717 µM	
Cc1nc(C(N)=S)sc1C(=O)C/C(=N/N)C(=O)Nc1cccc(Cl)c1C	> 100 µM		> 100 µM	> 100 µM	> 100 µM	> 100 µM	> 100 µM							> 100 µM		
COc1ccc(CN2c3ccccc3CCc3ccccc32)cc1F	> 100 µM	> 100 µM	> 100 µM	> 100 µM	> 100 µM	14.2 µM	> 100 µM	0.339 µM	0.481 µM	8.9 µM	0.529 µM	0.419 µM	0.609 µM	> 100 µM	0.522 µM	0.394 µM
COc1cc2nc(-c3ccc(C(F)(F)F)cc3)cc(OCCCN3CCCCC3)c2cc1OC	5.16 µM	16.5 µM	5.72 µM	13.6 µM	11.9 µM	1.2 µM	22.4 µM	1.85 µM	1.84 µM	1.28 µM	0.947 µM	0.595 µM	2.44 µM	21.7 µM	0.325 µM	0.454 µM
Fc1cccc(Cl)c1/C=N\N=C1c2ccccc2-c2ccccc21	> 100 µM	> 100 µM		> 100 µM	> 100 µM	> 100 µM	> 100 µM							> 100 µM		
CCc1c(C)c(C#N)c(=S)n(C2OC(CO)C(O)C(O)C2O)c1C (configuration not stated)	> 100 µM	> 100 µM	> 100 µM	> 100 µM	> 100 µM	> 100 µM	> 100 µM							> 100 µM		
Cc1c2ccc(N(C)c3ccnc(Nc4cccc(S(N)(=O)=O)c4)n3)cc2nn1C	> 17.9 µM	> 25 µM	> 25 µM	> 25 µM	> 25 µM	> 17.1 µM	21.8 µM	1.89 µM	9.06 µM	18.9 µM	9.03 µM	7.23 µM	6.09 µM	23.7 µM	6.01 µM	5.27 µM
Cc1ccc(NC(=O)Cn2c(Br)nc3c2c(=O)n(C)c(=O)n3C)cc1	5.87 µM	16.4 µM	28.9 µM	9.7 µM	11.6 µM	5.57 µM	14 µM	2.01 µM	4.64 µM	15.5 µM	2.83 µM	3.39 µM	9.27 µM	36.3 µM	2.31 µM	3.05 µM
CSC1=NS(=O)(=O)c2cc(C(=O)NN(C)C(=O)c3cc4c(cc3Cl)SC(SC)=NS4(=O)=O)c(Cl)cc2S1	> 10 µM	> 10 µM	> 10 µM	> 10 µM	> 10 µM	> 10 µM	> 10 µM							> 10 µM		

Compound	TGI [1]	TGI [2]	TGI [3]	TGI [4]	TGI [5]	TGI [6]	TGI [7]	GI50 [1]	GI50 [2]	GI50 [3]	GI50 [4]	GI50 [5]	GI50 [8]	TGI [8]	GI50 [6]	GI50 [7]
COC(=O)C1=C(C(=O)OC)SC(=C(Cl)C(=S)Sc2ccccc2N)S1		43.7 µM		33.2 µM	35.5 µM	49.2 µM	> 100 µM		4.14 µM		13.5 µM	19.6 µM	17.4 µM	43.1 µM	19.9 µM	39.6 µM
Cc1cc(-c2nnc3n2CCCCC3)c(C)n1-c1ccc(Cl)c(Cl)c1	28 µM	> 100 µM	29.3 µM	32.4 µM	45.7 µM	6.08 µM	30.8 µM	14 µM	27.6 µM	14 µM	16.8 µM	17.4 µM	12.6 µM	28.3 µM	2.18 µM	6.03 µM
O=S1(=O)c2ccccc2NC(=S)CC1c1ccccc1 (configuration not stated)		> 100 µM		> 100 µM	> 100 µM	> 100 µM	> 100 µM							> 100 µM		
CCC(c1cccc(O)c1)C(CC)c1cccc(O)c1 (configuration not stated)	16.7 µM	29.9 µM	18.3 µM	17.4 µM	12.8 µM	3.91 µM	17.1 µM	4.35 µM	11 µM	5.18 µM	4.89 µM	2.98 µM	4.9 µM	19.3 µM	1.41 µM	3.54 µM
C[C@]12CC[C@@H]3c4ccc(O)cc4C(O)C[C@H]3[C@@H]1CCC2=O (some centres not stated)	> 100 µM	> 100 µM	> 100 µM	> 100 µM	> 100 µM	> 100 µM	> 100 µM	76.2 µM	> 100 µM	84.2 µM	> 100 µM	> 100 µM	60.8 µM	> 100 µM	> 100 µM	> 100 µM
CSc1ccc(/C=C2\C=C(CC(=O)NCc3ccc(C(=O)c4ccccc4)cc3)c3cc(F)ccc32)cc1	0.902 µM	0.877 µM	0.756 µM	3.38 µM	4.39 µM	0.365 µM	44 µM	0.0364 µM	0.0401 µM	0.0544 µM	0.0633 µM	0.0377 µM	0.0287 µM	0.211 µM	0.035 µM	1.99 µM
CCOc1c(Cl)cc(CNC(C)C(O)c2ccccc2)cc1OC (configuration not stated)	26.4 µM	> 100 µM	32.7 µM	> 100 µM	35.9 µM	30.6 µM	46.5 µM	0.244 µM	37.6 µM	16.6 µM	31 µM	18.3 µM	20.7 µM	43.3 µM	16.6 µM	16.5 µM
CC(=O)OCC=C(CCl)CCC(Br)C(C)(C)Br (mixture of isomers)	> 10 µM	> 10 µM	> 10 µM	> 10 µM	> 10 µM	> 10 µM	> 10 µM							> 10 µM		
O=C1CCCN1CC#CCN1CCCC1	> 100 µM	> 100 µM	> 100 µM	> 100 µM	> 100 µM	> 100 µM	> 100 µM	> 100 µM	> 100 µM	> 100 µM	> 100 µM	> 100 µM	> 100 µM	> 100 µM	> 100 µM	> 100 µM
c1nnc(NCNc2nncs2)s1	> 100 µM	> 100 µM	84.2 µM	> 100 µM	83.6 µM	> 100 µM	> 100 µM							> 100 µM		
CC(=O)Nc1ccc(S(=O)(=O)NNC(=O)c2cccnc2Nc2ccc(Cl)cc2)cc1	76.1 µM	> 100 µM		> 100 µM	> 100 µM	> 100 µM	> 100 µM	18.4 µM	34.3 µM	8.38 µM	> 100 µM	4.69 µM	6.44 µM	> 100 µM	5.68 µM	6.28 µM
Cc1ccc(N=Nc2c(C)c(C#N)c(=S)n(C3OC(CO)C(O)C(O)C3O)c2-c2ccccc2)cc1 (configuration not stated)	33.2 µM	> 100 µM	> 100 µM	54.2 µM	> 100 µM	23.2 µM	57.2 µM									
OCC1OC(n2cnc3c(/C=C(/O)c4ccccc4)ncnc32)C(O)C1O (configuration not stated)	> 91.1 µM	> 100 µM		> 100 µM	7.56 µM	79.7 µM	> 100 µM							43.1 µM		
COc1ccc(Cn2c(Cl)c(/C=C3/C(=O)Nc4ccccc43)c3cc(OC)c(C)cc32)cc1		> 100 µM		> 100 µM	> 100 µM	16 µM	> 100 µM		18.1 µM		5.67 µM	5.03 µM	4.77 µM	> 100 µM	2.44 µM	25 µM
O=C1Nc2cccc3cc(NCC(O)CCl)cc1c23 (configuration not stated)		> 100 µM	> 100 µM	> 100 µM	> 100 µM	> 100 µM	> 100 µM							> 100 µM		
Nc1ccc(S(=O)(=O)NCc2nccs2)cc1	33.4 µM	95.5 µM		> 100 µM	> 100 µM	29.6 µM	71.8 µM							35.6 µM		
Cc1ccc(SC(=O)N2C(=S)NC(=NC3CCCCC3)C23CCCCC3)cc1		> 100 µM	> 100 µM	> 100 µM	> 100 µM	> 100 µM	> 100 µM							> 100 µM		
CCN(CC)CCCC(C)Nc1c2ccc(C)cc2nc2ccc(OC)cc12 (configuration not stated)	13.8 µM	8.83 µM		3.49 µM	3.74 µM	3.03 µM	33.9 µM	0.863 µM	1.65 µM		1.37 µM	1.2 µM			1.65 µM	11.8 µM
Cc1cc(=O)oc2cc(O)c(CN(C)CC(=O)O)cc12	> 100 µM	> 100 µM	> 100 µM		> 100 µM	> 100 µM	> 100 µM							> 100 µM		
Cc1cc(N/N=C/c2nc(-c3ccc(Cl)cc3)oc2C)c2cc(Cl)ccc2n1	25.1 µM	6.9 µM	7.32 µM	3.76 µM		20.8 µM	3.36 µM	11.7 µM	2.45 µM	2.86 µM	1.92 µM		1.89 µM	4.27 µM	8.64 µM	1.69 µM

Reference: PubChem BioAssay (NCI)
